Results: paper PMC4768138, “Biliverdin targets enolase and eukaryotic initiation factor 2 (eIF2α) to reduce the growth of intraerythrocytic development of the malaria parasite Plasmodium falciparum” (Scientific Reports, 2016)

Key:
[1] = target: T1, P. falciparum enolase (Pf enolase) (Plasmodium falciparum, UniProt Q8IJN7); test: ITC with purified enzyme (n = […], ΔG −[…] Kcal/mol, Kd not given); IC50 from enzyme inhibition assay; type: biochemical
T1 construct: gene ENO; recombinant full-length Plasmodium enolase, expressed in E. coli, His-tag-thioredoxin removed by TEV protease

[2] = target: the molecule itself; test: SEC; Superdex 200 16/60, 20 mM Tris-HCl pH 8.0, 200 mM NaCl; single symmetric peak of the purified recombinant protein

| Molecule | IC50 [1] | stoichiometry N [2] |
| --- | --- | --- |
| C=CC1=C(C)/C(=C/C2=NC(=C\c3[nH]c(/C=C4\NC(=O)C(C)=C4C=C)c(C)c3CCC(=O)O)/C(CCC(=O)O)=C2C)NC1=O [BV, biliverdin] | 27 ± 4 µM | – |
| Plasmodium falciparum enolase (enzyme, UniProt Q8IJN7 1-446, looked up, Enolase of Plasmodium falciparum, expressed from the P. falciparum enolase-pETTrx-1a plasmid; the abstract calls it recombinant full-length Plasmodium enolase; The His-tag-thioredoxin was removed by TEV protease; also called Pf enolase; P. falciparum enolase; source: E. coli Rosetta (DE3), purified (HisTrap, TEV digestion, second HisTrap, Superdex 200)) MAHVITRINAREILDSRGNPTVEVDLETNLGIFRAAVPSGASTGIYEALELRDNDKSRYLGKGVQKAIKNINEIIAPKLIGMNCTEQKKIDNLMVEELDGSKNEWGWSKSKLGANAILAISMAVCRAGAAANKVSLYKYLAQLAGKKSDQMVLPVPCLNVINGGSHAGNKLSFQEFMIVPVGAPSFKEALRYGAEVYHTLKSEIKKKYGIDATNVGDEGGFAPNILNANEALDLLVTAIKSAGYEGKVKIAMDVAASEFYNSENKTYDLDFKTPNNDKSLVKTGAQLVDLYIDLVKKYPIVSIEDPFDQDDWENYAKLTAAIGKDVQIVGDDLLVTNPTRITKALEKNACNALLLKVNQIGSITEAIEACLLSQKNNWGVMVSHRSGETEDVFIADLVVALRTGQIKTGAPCRSERNAKYNQLLRIEESLGNNAVFAGEKFRLQLN | – | 2 |
